Here are results for 1 compound from patent US20250177405A1, “METHODS OF TREATING NEUROLOGICAL AND CARDIOVASCULAR CONDITIONS” (ASTROCYTE PHARMACEUTICALS, INC., priority 2021, published 2025).

The subject of data set [1] is brain A1R/A3R. The data set can be described thus: estimated brain receptor occupancy of I-1 in rodent efficacy studies. Format: in vivo. The note with it: mouse and rat efficacy models, from brain unbound drug concentrations. From the text:
(§1) Receptor occupancy is a mass action relationship:
(§2) The percentage of a receptor occupied by an agonist or antagonist is a function of the drug concentration and the drug affinity for the receptor target. The challenge is that drug concentrations at the target site (in this case, brain, and CSF) can vary by species, as can affinity for the drug target. Affinity of I-1 for its receptor target can vary by as much as 5-fold between species. Accordingly, for each species, it is necessary to determine the I-1 affinity for its target as well as the concentration of I-1 at each administered dose in a relevant matrix.
In our rodent mouse and rat efficacy studies, we were able to directly determine brain unbound drug concentrations at efficacious doses. In those efficacy models, the estimated receptor occupancies associated with efficacy were around 1% or less.

The subject of data set [2] is photothrombosis-induced stroke in mice. The data set can be described thus: mouse photothrombotic stroke model. It counts as in vivo. Here is the method: Photothrombosis-induced Stroke: Photothrombosis is performed as described in Zheng et al 2010 (PloS One 5 (12): e14401). In brief, Rose Bengal is a fluorescent dye that when injected into the vasculature and excited, generates singlet oxygen that damages the endothelial wall and induces a local thrombosis (clot). Using this technique, mice are given a 0.1 mL tail-vein injection of sterilized Rose Bengal (RB, Sigma, U.S.A.) in artificial cerebral spinal fluid (aCSF). The RB concentration is 20 mg/mL. A cortical region is centered in the imaging field and illuminated with a green laser (543 nm, 5 mW) using a 0.8-NA 40× water-immersion objective (Nikon, Tokyo). The clot formation is monitored in real time until the targeted vessel or downstream capillaries are firmly occluded. […]
Animals and Photothrombosis-induced Stroke: Stroke is performed as described in Zheng et al 2010 (PloS One 5 (12): e14401). […] Depth of anesthesia is monitored and regulated according to vital signs, pinch withdrawal and eye blinks. […] Vital signs including oxygen saturation, respiratory rate, and heart rate are continuously monitored by using the MouseOx system (STARR Life Sciences). […]
Post photothrombotic infarction evaluation. The size of cerebral infarcts is evaluated using 2,3,5-Triphenyltetrazolium chloride (TTC) staining as described in Zheng et al 2010 (PloS One 5 (12): e14401). […]

For another data set, the target named is T1, A3 receptor in the mouse (Mus musculus, UniProt Q61618).
T1 sequence (Q61618 1-319): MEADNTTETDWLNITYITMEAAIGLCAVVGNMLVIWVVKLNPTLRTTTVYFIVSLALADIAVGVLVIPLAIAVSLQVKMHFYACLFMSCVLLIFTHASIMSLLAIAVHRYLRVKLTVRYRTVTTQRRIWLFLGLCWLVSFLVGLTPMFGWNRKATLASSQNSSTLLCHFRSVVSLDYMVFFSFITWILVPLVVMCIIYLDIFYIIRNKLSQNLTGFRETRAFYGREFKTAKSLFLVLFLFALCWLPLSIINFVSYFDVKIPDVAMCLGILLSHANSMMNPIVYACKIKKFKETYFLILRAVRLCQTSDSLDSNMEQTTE
As to the kind of experiment: affinity at mouse A3 receptor. Format: binding. On the procedure: Similar competition binding assays may be conducted using HEK293 cell membranes expressing mARs using [^125I]I-AB-MECA to label A1 or A3ARs and [^3H]CGS21680 to label A2AARs. IC50 values were converted to Ki values using known methods. Nonspecific binding was determined in the presence of 100 μM NECA.

Data set [3] has as its system brain A1R/A3R. The data set can be described thus: estimated brain receptor occupancy of I-1 in nonhuman primate stroke study. Format: in vivo. On the procedure:
Cerebrospinal fluid drug concentration is an established proxy for unbound drug brain concentration that interacts with central receptor targets (references 46, 47). The unbound brain concentrations and resulting brain receptor occupancy at the A1R and A3R can be estimated using receptor affinity data and simple mass action equations (references 48, 49). […] Accordingly, during the 22 h infusion of I-1, sufficient CSF concentrations were available to provide coverage of central A1R and A3R in the macaque.
as §1, §2
We then proceeded to our key preclinical stroke efficacy model in nonhuman primates. Pre-efficacy pharmacokinetic studies obtained plasma and CSF pharmacokinetic data. […]

Data set [4] can be described thus: pharmacokinetics of I-1 after intravenous bolus in normal and tMCAO nonhuman primates. It counts as in vivo, nonhuman primate. The settings on record: for C0 / clearance / half-life / Vd: monkey, plasma, iv, 0.5 mg/kg, intravenous bolus 0.5 mg/kg; for Vd: read-out: Vdss.

Read-outs that look alike come from different tables or passages of the source.

The term clearance denotes the volume of plasma or blood freed of the substance per unit of time. Broadly, the half-life is how long it takes for the measured level to halve. For `CSc1nc(N)c2ncn([C@H]3C(O)C(O)[C@]4(CO)C[C@H]34)c2n1` (stereo in doubt) [Compound I-1], the “estimated receptor occupancies associated with efficacy” value in the data set with brain A1R/A3R [1] was not above 1%. In addition, the “efficacy in presence of the A3 antagonist MRS1523” value in data set [2] (mouse photothrombotic stroke and TBI models) is given as “blocked”. Moreover, the “efficacy in mouse photothrombotic stroke model” value in data set [2] (mouse, in vivo) is “significant efficacy”. Also, the “difference in affinity between I-1 and Cl-IB-MECA” value on A3 receptor in the mouse is listed as “approximately 25,000 fold”. Also, the “estimated receptor occupancy associated with significant efficacy” value in the data set on brain A1R/A3R [3] (NHP stroke study, Low, Mid, High Doses) is recorded as 1-15%. Further, the “estimated receptor occupancy at which efficacy started” value in the data set with brain A1R/A3R [3] (monkey) was approximately 34%. In addition, the “I-1 plasma concentrations after single intravenous bolus” value in data set [4] (8 h post-dose) is on record as “below bioanalytical limits of quantitation”. For the same compound, in data set [4] (Normal NHP (n = 3)), the C0 was 329 ng/mL, the clearance came to 29 mL/min/kg, the half-life is 1.3 h and the Vd stood at 3.1 L/kg. Moreover, in data set [4] (tMCAO NHP (n = 1)), the C0 was 544 ng/mL, the clearance was determined as 28 mL/min/kg, the half-life was 1.5 h and the Vd is 3 L/kg.
